Measured values from patent publication US20160304970A1, “GENE BIOMARKER TO DIAGNOSE METASTIC LIVER CANCER AND METHODS FOR TARGETING THE SAME” (University of Southern California, priority 2015, published 2016).
Several values for one entry are separate records, joined by “and”; a condition that tells them apart may be missing. Equal values may be shown once.

Experiments:
CD133 (+) Huh7 cells [1] = assay: In vivo tumorigenicity, CD133 (+) Huh7 cells in NOG mice; design: species or system mouse
Protocol: The TUNEL staining was performed according to the manufacturer's instructions (4810-30-K, TREVIGEN). In brief, paraffin-embedded tumor sections from each group were de-paraffinized, re-hydrated, and washed twice in PBS. Samples were covered with Proteinase K solution for 30 minutes at room temperature and then washed two times in deionized water. Slides were immersed in quenching solution for 5 minutes at room temperature and then washed in PBS. Slides were incubated in TdT labeling buffer for 5 minutes, immersed with labeling reaction mix, and incubated at 37° C. for 1 hour in a humidity chamber. Samples were immersed in TdT stop buffer for 5 minutes and then washed twice in deionized water for 5 minutes each at room temperature. Samples were covered with Strep-HRP solution and incubated for 10 minutes at 37° C. and washed twice in PBS. Samples were incubated in DAB solution for 5 minutes and then washed in deionized water several times. The samples were counterstained with Methyl Green and mounted on slides for observation.
CD133 was conjugated to the terminal amine functionality on a polyethylene glycol block of polylactide-polyethylene glycol (PLA-PEG) as previously described (Swaminathan et al., 2013). PLGA (30 mg) was dissolved in 1 ml chloroform containing ATRA (6 mg). An oil-in-water emulsion was formed by emulsifying the polymer drug solution in 6 ml of 2.5% w/v aqueous PVA solution by sonication (Sonicator®XL, Misonix, N.Y.) for 5 minutes in an ice bath. The PLA-PEG-CD133 conjugate was dissolved in chloroform (8 mg/100 μl) and added to the oil-in-water emulsion with stirring. The emulsion was stirred for 18 hours at ambient conditions followed by 2 hours under vacuum to remove residual chloroform. Nanoparticles were recovered by ultracentrifugation (35,000 rpm for 35 minutes at 4° C.; OptimaTMLE-80K, Beckman, Palo Alta, Calif.) and washed three times with deionized water to remove excess PVA and unencapsulated drugs. The nanoparticle suspension was then lyophilized (Labconco, FreeZone 4.5, Kansas City, Mo.). Before injection, the lyophilized nanoparticles were re-dissolved in PBS and filtered with a 0.22 micron filter.
A half million freshly sorted CD133 (+) TICs were suspended in 100 μl of Matrigel™ (BD) and injected subcutaneously into NOD/Shi-scid/IL-2Rγ^null(NOG) mice, six mice per group. After the tumor volume reached 100 mm^3, animals received one intravenous dose of CD133-conjugated RA nanoparticle (5 μg/ml) and SAHA (0.5 μg/ml) daily. The animals were monitored regularly for tumor growth and survival every day. All animals work was performed according to national and international guidelines. Animal studies were based on a protocol approved by the Institutional Animal Care and Use Committee at University of Southern California.

CD133 (+) Huh7 cells [2] = assay: CD133 cell viability screening (luminescence, CellTiter-Glo); assay type: cell-based; details: Homo sapiens, Huh-7
Protocol: CD133(+) and CD133(−) Huh7 cells were freshly sorted using the MACS CD133 micro bead kit (Miltenyi Biotec, 130-050-801) and were seeded in 100 μl medium containing 5000 cells per well in a 96-well plate. Once the cells attached, the FDA approved drug library was added to each well to a final concentration of 20 μg/ml in duplicate. After incubation for 48 hours, the cell viability was determined by a luminescence assay. […] After 16 hours, 1 μl of a […] drug solution was individually added to the 96 wells, resulting in a 20 μg/ml final concentration for most compounds. After 48 hours, CellTiter-Glo® Reagent (G8233, Promega) was added and the luminescence signal was measured with an automated plate reader. The raw data for each well was background-corrected by DMSO control wells on the same plate.
Freshly sorted CD133 (+) Huh7 or mouse TICs were plated in 100 μl of medium containing 5000 cells per well in a 96-well plate. After 16 hours, 0.5 μl of a 2 μg/ml, 1 μg/ml, 0.2 μg/ml, 0.1 μg/ml, 0.02 μg/ml, or 0.01 μg/ml compound was added to each well in triplicate, resulting in a 10 μg/ml, 5 μg/ml, 1 μg/ml, 0.5 μg/ml, 0.1 μg/ml, and 0.05 μg/ml final concentration for most compounds, respectively. After 48 hours, the cells were either measured for cell viability by Cell-Glo® Reagent (Promega), or fixed with 1% PFA (paraformaldehyde) and stained with DAPI for high-throughput screening.

TICs = assay: Annexin V-PI staining and caspase activity analysis; assay type: cell-based; details: 6 and 12 hours; p<0.05
Protocol: Annexin V staining was performed according to the manufacturer's instructions (A35110, Invitrogen). In brief, after drug treatment, the cells were washed twice with ice-cold phosphate-buffered saline (PBS) and detached by trypsin/EDTA. The cells were then incubated with 5 μl of Annexin V-APC in a 100 μl of cell suspension at room temperature for 15 minutes. After incubation, the cells were mixed with propidium iodide solution and analyzed by flow cytometry.
The caspase activity assay was performed according to the manufacturer's instructions (G8090, G8200, and G8210, Promega). In brief, 10,000 cells were plated into each well of a 96-well plate. After the cells attached, the drugs (5 μg/ml of ATRA and 0.5 μg/ml of SAHA) were added to each well and incubated for 6, 12, 16, and 24 hours. After incubation, the Caspase-Glo® substrate reagent was added to each well followed by incubation for 30 minutes. After incubation, the luminescence signal was measured with a luminometer.

CD133 (+) Huh7 cells [3] = assay: Anchorage-independent growth assay in soft agar; assay type: cell-based, human; details: retinoic acid 5 μg/ml, SAHA 0.5 μg/ml; 2 weeks
Protocol: Freshly sorted CD133 (+)/(−) Huh7 cells were mixed with 0.35% agarose containing 1000 cells per well in culture medium with retinoic acid (5 μg/ml), SAHA (0.5 μg/ml), or a combination of both. After 2 weeks, the colony numbers were counted.

[4] = NOG mice, CD133 (+) Huh7 tumors

caspase-8 (extrinsic) and caspase-9 (intrinsic) pathway activity (TICs): induced both
SMILES: CC1=C(/C=C/C(C)=C/C=C/C(C)=C/C(=O)O)C(C)(C)CCC1 [ATRA, all-trans retinoic acid]
tumor growth (CD133 (+) Huh7 cells [1]; ATRA 5 μg/ml in CD133 antibody-conjugated nanoparticles, SAHA 0.5 μg/ml, after 4 days of treatment): did not reduce or even promote tumor growth
TUNEL staining of tumors (CD133 (+) Huh7 cells [1]; [4]): TUNEL-positive tumor cells
tumor morphology, hematoxylin and eosin stained sections (CD133 (+) Huh7 cells [1]; [4]): necrotic regions
viability at 20 µg/mL (CD133 (+) Huh7 cells [2]; 20 μg/ml, 48 hours): 41.4%
IC50 (CD133 (+) Huh7 cells [2]; CD133 killing effect, FIG. 44A): 4.06 µg/mL and 13.5 µM
reduction of colony numbers, anchorage independent growth in soft agar (CD133 (+) Huh7 cells [3]): 50%
